In assay [1] the target is T1, Alkaline phosphatase, tissue-nonspecific isozyme (Homo sapiens, UniProt P05186).
T1 sequence (P05186 whole entry): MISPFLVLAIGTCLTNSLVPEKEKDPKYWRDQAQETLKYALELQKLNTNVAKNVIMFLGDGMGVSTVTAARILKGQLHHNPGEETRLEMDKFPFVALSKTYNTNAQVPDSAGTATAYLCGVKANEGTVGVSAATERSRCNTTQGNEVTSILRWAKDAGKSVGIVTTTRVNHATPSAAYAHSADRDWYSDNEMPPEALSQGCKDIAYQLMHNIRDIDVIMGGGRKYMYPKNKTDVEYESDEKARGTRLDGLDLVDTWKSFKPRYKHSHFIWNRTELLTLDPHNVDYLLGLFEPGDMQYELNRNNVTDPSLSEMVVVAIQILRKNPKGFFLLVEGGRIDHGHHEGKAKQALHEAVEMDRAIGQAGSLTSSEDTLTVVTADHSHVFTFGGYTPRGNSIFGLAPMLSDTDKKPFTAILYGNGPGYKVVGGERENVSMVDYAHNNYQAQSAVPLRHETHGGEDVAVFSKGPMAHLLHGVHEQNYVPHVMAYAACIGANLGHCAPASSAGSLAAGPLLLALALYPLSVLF
The assay is described as follows: human TNAP enzyme inhibitors, SAR follow-up, biochemical, luminescent, dose response (AID 1056).

The target in assay [2] is Glyceraldehyde-3-phosphate dehydrogenase (Homo sapiens, UniProt P04406).
Sequence of Glyceraldehyde-3-phosphate dehydrogenase (P04406 whole entry): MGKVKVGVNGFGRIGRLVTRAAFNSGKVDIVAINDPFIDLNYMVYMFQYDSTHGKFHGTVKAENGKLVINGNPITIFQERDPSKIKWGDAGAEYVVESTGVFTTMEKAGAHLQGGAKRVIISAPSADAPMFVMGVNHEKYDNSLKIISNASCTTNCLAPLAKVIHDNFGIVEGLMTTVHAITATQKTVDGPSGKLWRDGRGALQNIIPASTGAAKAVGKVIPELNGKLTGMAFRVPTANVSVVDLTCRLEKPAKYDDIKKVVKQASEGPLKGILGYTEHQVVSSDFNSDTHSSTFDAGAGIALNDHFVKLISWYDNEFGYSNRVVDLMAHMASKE
The target in assay [3] is Female germline-specific tumor suppressor gld-1 (Caenorhabditis elegans, UniProt Q17339). The assay is described as follows: inhibitors of GLD-1 binding to TGE RNA, dose response, biochemical, fluorescence polarization, C. elegans (AID 2802).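 Also: fluorescence polarization of labeled TGE RNA bound by purified gld-1 protein.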 In general terms: Polarisation of emitted light reports the rotation of a fluorescent probe.
Sequence of Female germline-specific tumor suppressor gld-1 (Q17339 whole entry): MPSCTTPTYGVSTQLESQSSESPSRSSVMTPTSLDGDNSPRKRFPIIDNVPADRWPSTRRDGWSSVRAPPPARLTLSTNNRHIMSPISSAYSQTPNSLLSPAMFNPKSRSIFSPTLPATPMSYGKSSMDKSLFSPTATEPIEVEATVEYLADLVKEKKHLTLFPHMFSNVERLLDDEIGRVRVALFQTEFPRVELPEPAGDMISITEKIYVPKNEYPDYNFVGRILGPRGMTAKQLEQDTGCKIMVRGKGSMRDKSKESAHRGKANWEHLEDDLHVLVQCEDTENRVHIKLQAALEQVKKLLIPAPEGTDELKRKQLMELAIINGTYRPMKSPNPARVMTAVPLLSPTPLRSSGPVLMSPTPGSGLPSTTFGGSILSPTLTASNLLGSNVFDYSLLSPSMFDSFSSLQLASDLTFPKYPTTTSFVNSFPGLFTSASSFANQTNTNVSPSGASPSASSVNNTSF
Another assay has as its target Protein Rev (Human immunodeficiency virus type 1 group M subtype B (isolate HXB2)(HIV-1), UniProt P04618). In words: inhibitors of Rev binding to RRE RNA, dose response, biochemical, fluorescence polarization, HIV-1 (AID 434976). More on the design: species or system Human immunodeficiency virus 1.
Assay [4] concerns the target T2, Zinc finger protein mex-5 (Caenorhabditis elegans, UniProt Q9XUB2).
T2 sequence (Q9XUB2 whole entry): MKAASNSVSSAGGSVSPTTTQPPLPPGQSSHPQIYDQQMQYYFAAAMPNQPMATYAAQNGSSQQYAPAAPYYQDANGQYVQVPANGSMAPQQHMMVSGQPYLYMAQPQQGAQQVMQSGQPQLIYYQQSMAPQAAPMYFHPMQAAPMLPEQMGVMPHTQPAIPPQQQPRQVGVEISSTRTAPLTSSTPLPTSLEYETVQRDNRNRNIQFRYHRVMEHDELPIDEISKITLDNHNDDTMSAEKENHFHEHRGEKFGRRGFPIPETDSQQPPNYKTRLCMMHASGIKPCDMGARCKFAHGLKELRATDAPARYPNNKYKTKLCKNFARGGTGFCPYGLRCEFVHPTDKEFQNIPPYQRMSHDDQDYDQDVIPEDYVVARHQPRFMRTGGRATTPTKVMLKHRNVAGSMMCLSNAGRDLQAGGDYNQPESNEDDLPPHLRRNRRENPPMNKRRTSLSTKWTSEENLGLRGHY
In words: MEX-5/TCR-2 RNA interaction inhibitors, dose response, biochemical, C. elegans, fluorescence polarization (AID 1960).

Assay [5] deals with T3, RNA-binding protein pos-1 (Caenorhabditis elegans, UniProt G5EF15).
T3 sequence (G5EF15 whole entry): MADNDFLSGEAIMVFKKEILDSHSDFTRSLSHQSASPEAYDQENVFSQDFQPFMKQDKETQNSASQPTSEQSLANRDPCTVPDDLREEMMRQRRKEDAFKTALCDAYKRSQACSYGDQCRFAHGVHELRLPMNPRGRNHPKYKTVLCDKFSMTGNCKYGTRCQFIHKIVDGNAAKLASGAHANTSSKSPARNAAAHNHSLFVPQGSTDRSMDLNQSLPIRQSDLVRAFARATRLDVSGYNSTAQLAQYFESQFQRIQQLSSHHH
In words: inhibitors of POS-1/mex-3 RNA binding, dose response, biochemical, fluorescence polarization (AID 1964).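 Also: purified POS-1 fused to maltose binding protein made in E. coli; potency of compounds blocking POS-1 binding to fluorescent RNA.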

The next assay deals with J774.A1. In words: Confirmation of image-based Screening Assay for Inhibitors of Phagocytosis. [Related pubchem assays (depositor defined):AID1029, AID1643]. Type of assay: functional, cell-based. Conditions: Mus musculus.
The subject of a further assay is T-cell. In words: inhibitors of CD8+ T cell–vesicle binding, dose response, mouse 2C CD8+ T cells, flow cytometry (AID 485284). The class given is functional. For orientation: Flow cytometry measures light scatter and fluorescence of single cells or particles in a stream.
Assay [6] in a line: inhibition of K1F phage lysis, E. coli UTI89, bacterial capsule biogenesis inhibitors, alamar blue (AID 488966). Type of assay: functional. On the technique in general: The colour change of resazurin is a common sign of viable cells or microbes.

The source made the active and inactive calls.

Sequence of Protein Rev (P04618 whole entry): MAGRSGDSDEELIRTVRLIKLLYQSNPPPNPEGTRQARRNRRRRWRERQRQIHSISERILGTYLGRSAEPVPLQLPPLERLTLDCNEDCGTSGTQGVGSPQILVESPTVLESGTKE

As to `c1cncc(-n2cncn2)c1`, the IC50 – broadly, the concentration that inhibits the measured activity by half – in [1] is > 100 µM (inactive); in [2], > 100 µM (not active).
As to `COC(=O)[C@@]1(C#N)[C@@H]2C=CC(C(C)=O)=CN2[C@@H](C(N)=O)[C@@H]1c1ccc(F)cc1`, the IC50 in [3] is 15.1 µM (inactive); on Protein Rev, 18.3 µM (not active). Further, the EC50 (as a rule, the concentration that produces a half-maximal response) in assay [4] was 11.4 µM (active); in assay [5], 4.6 µM (active).
`O=C(COc1ccc(-c2ccccc2)cc1)N1CCN(S(=O)(=O)Cc2ccccc2)CC1`: in the assay with J774.A1, the IC50 is > 25 µM (inactive).
Consider `CCN(CC)CCNC(=O)CCCNC(=O)Cn1cnc2sc(C)c(C)c2c1=O`, for which the 50% effective concentration (EC50) with T-cell is 9.52 µM (active).
Turning to `Cc1nc(SCc2ccccc2)c([N+](=O)[O-])[nH]1`, the IC50 in [6] is > 150 µM (active).

These data come from ChEMBL document CHEMBL1201862, “PubChem BioAssay data set” (2004).
